# Assay results reported in paper PMC5218480 (PLoS ONE, 2017).
# System: MV-4-11 cells
# Test: Gene expression microarray analysis (Affymetrix PrimeView) and GSEA
# Type: cell-based, human
# Parameters: RFU PODN (11730768_x_at) / Fold change /veh PODN (11730768_x_at) / RFU LINC00158 (11744669_a_at) / Fold change /veh LINC00158 (11744669_a_at) / RFU DUSP10 (11751237_a_at) / Fold change /veh DUSP10 (11751237_a_at) / RFU ID3 (11757404_x_at) / Fold change /veh ID3 (11757404_x_at) / RFU PLEKHG5 (11737974_s_at) / Fold change /veh PLEKHG5 (11737974_s_at) / RFU LRRC4B (11730491_at) / Fold change /veh LRRC4B (11730491_at) / RFU GIMAP4 (11747438_a_at) / Fold change /veh GIMAP4 (11747438_a_at) / RFU KRT8 (11758183_x_at) / Fold change /veh KRT8 (11758183_x_at) / RFU CNN1 (11734310_a_at) / Fold change /veh CNN1 (11734310_a_at) / RFU VPS37D (11726825_at) / Fold change /veh VPS37D (11726825_at) / RFU C10orf10 (11716522_x_at) / Fold change /veh C10orf10 (11716522_x_at) / RFU KIR2DL2 /// KIR2DL4 /// KIR2DL5A /// KIR2DL5B /// KIR2DS1 /// KIR2DS2 /// KIR2DS3 /// KIR2DS4 /// KIR3DL3 /// KIR3DL3 /// KIR3DS1 (11738374_at) / Fold change /veh KIR2DL2 /// KIR2DL4 /// KIR2DL5A /// KIR2DL5B /// KIR2DS1 /// KIR2DS2 /// KIR2DS3 /// KIR2DS4 /// KIR3DL3 /// KIR3DL3 /// KIR3DS1 (11738374_at) / RFU C1QL1 (11718748_at) / Fold change /veh C1QL1 (11718748_at) / RFU TMPRSS4 (11747572_a_at) / Fold change /veh TMPRSS4 (11747572_a_at) / RFU HAMP (11756126_x_at) / Fold change /veh HAMP (11756126_x_at) / RFU RNFT2 (11725882_a_at) / Fold change /veh RNFT2 (11725882_a_at) / RFU NR4A2 (11747474_a_at) / Fold change /veh NR4A2 (11747474_a_at) / RFU ABCC12 (11746883_a_at) / Fold change /veh ABCC12 (11746883_a_at) / RFU TMEM136 (11760407_x_at) / Fold change /veh TMEM136 (11760407_x_at) / RFU CLDN22 /// WWC2 (11732394_at) / Fold change /veh CLDN22 /// WWC2 (11732394_at) / RFU HLA-DPB1 (11760878_x_at) / Fold change /veh HLA-DPB1 (11760878_x_at) / RFU SPINT1 (11716480_a_at) / Fold change /veh SPINT1 (11716480_a_at) / RFU GAP43 (11754022_s_at) / Fold change /veh GAP43 (11754022_s_at) / RFU A4GNT (11735810_at) / Fold change /veh A4GNT (11735810_at) / RFU PRB3 (11715151_x_at) / Fold change /veh PRB3 (11715151_x_at) / RFU TUBB4B (11761932_at) / Fold change /veh TUBB4B (11761932_at) / RFU CAPN14 (11732068_a_at) / Fold change /veh CAPN14 (11732068_a_at) / RFU TMCC2 (11721928_a_at) / Fold change /veh TMCC2 (11721928_a_at) / RFU IRGQ (11745062_a_at) / Fold change /veh IRGQ (11745062_a_at) / RFU FAM174B (11720279_a_at) / Fold change /veh FAM174B (11720279_a_at) / RFU TMPRSS4 (11748680_a_at) / Fold change /veh TMPRSS4 (11748680_a_at) / RFU FAM212B (11763350_a_at) / Fold change /veh FAM212B (11763350_a_at) / RFU PLEKHG5 (11743358_a_at) / Fold change /veh PLEKHG5 (11743358_a_at) / RFU ZSCAN30 (11745921_a_at) / Fold change /veh ZSCAN30 (11745921_a_at) / RFU CMKLR1 (11741424_a_at) / Fold change /veh CMKLR1 (11741424_a_at) / RFU LOC101060620 /// MAPK8IP1 (11723275_at) / Fold change /veh LOC101060620 /// MAPK8IP1 (11723275_at) / RFU SPTSSB (11747773_x_at) / Fold change /veh SPTSSB (11747773_x_at) / RFU PRSS12 (11739890_at) / Fold change /veh PRSS12 (11739890_at) / RFU BIN1 (11741810_x_at) / Fold change /veh BIN1 (11741810_x_at) / RFU WNT11 (11732464_a_at) / Fold change /veh WNT11 (11732464_a_at) / RFU C10orf10 (11716521_a_at) / Fold change /veh C10orf10 (11716521_a_at) / RFU C5orf56 (11738089_at) / Fold change /veh C5orf56 (11738089_at) / RFU CYB561 (11721691_x_at) / Fold change /veh CYB561 (11721691_x_at) / RFU ANKRD19P (11752326_a_at) / Fold change /veh ANKRD19P (11752326_a_at) / RFU OR2T12 /// OR2T33 /// OR2T8 (11738714_s_at) / Fold change /veh OR2T12 /// OR2T33 /// OR2T8 (11738714_s_at) / RFU VCAN (11748164_a_at) / Fold change /veh VCAN (11748164_a_at) / RFU JSRP1 (11732532_at) / Fold change /veh JSRP1 (11732532_at) / RFU KRTAP10-11 (11738290_x_at) / Fold change /veh KRTAP10-11 (11738290_x_at) / RFU MYO3A (11730013_a_at) / Fold change /veh MYO3A (11730013_a_at) / RFU EBF3 (11725865_a_at) / Fold change /veh EBF3 (11725865_a_at) / RFU CAMK2N1 (11719241_x_at) / Fold change /veh CAMK2N1 (11719241_x_at) / RFU C5orf56 (11738088_a_at) / Fold change /veh C5orf56 (11738088_a_at) / RFU OLFML3 (11715873_a_at) / Fold change /veh OLFML3 (11715873_a_at) / RFU LOC100653217 /// NTM (11731650_a_at) / Fold change /veh LOC100653217 /// NTM (11731650_a_at) / RFU MAPK11 (11762145_a_at) / Fold change /veh MAPK11 (11762145_a_at) / RFU FIZ1 (11724087_x_at) / Fold change /veh FIZ1 (11724087_x_at) / RFU OASL (11726364_x_at) / Fold change /veh OASL (11726364_x_at) / RFU SOX15 (11748057_x_at) / Fold change /veh SOX15 (11748057_x_at) / RFU CD79A (11719716_a_at) / Fold change /veh CD79A (11719716_a_at) / RFU HIST1H1D (11736915_at) / Fold change /veh HIST1H1D (11736915_at) / RFU CASKIN2 (11723855_a_at) / Fold change /veh CASKIN2 (11723855_a_at) / RFU LOC730098 (11760151_x_at) / Fold change /veh LOC730098 (11760151_x_at) / RFU OR4N2 (11742367_at) / Fold change /veh OR4N2 (11742367_at) / RFU PRRT2 (11749266_a_at) / Fold change /veh PRRT2 (11749266_a_at) / RFU SNX32 (11753110_a_at) / Fold change /veh SNX32 (11753110_a_at) / RFU CDHR5 (11726645_a_at) / Fold change /veh CDHR5 (11726645_a_at) / RFU RCAN1 (11760418_a_at) / Fold change /veh RCAN1 (11760418_a_at) / RFU FAM167A (11723789_a_at) / Fold change /veh FAM167A (11723789_a_at) / RFU FAM26E (11764081_at) / Fold change /veh FAM26E (11764081_at) / RFU ISYNA1 (11749810_s_at) / Fold change /veh ISYNA1 (11749810_s_at) / RFU ACY1 (11761880_at) / Fold change /veh ACY1 (11761880_at) / RFU 11764098_at / Fold change /veh 11764098_at / RFU SAMD14 (11745864_x_at) / Fold change /veh SAMD14 (11745864_x_at) / RFU NPB (11741838_a_at) / Fold change /veh NPB (11741838_a_at) / RFU TMPRSS6 (11731388_a_at) / Fold change /veh TMPRSS6 (11731388_a_at) / RFU KRTAP10-2 (11738614_at) / Fold change /veh KRTAP10-2 (11738614_at) / RFU ARHGAP8 /// PRR5-ARHGAP8 (11727945_x_at) / Fold change /veh ARHGAP8 /// PRR5-ARHGAP8 (11727945_x_at) / RFU KRTAP5-7 /// NADSYN1 (11734609_at) / Fold change /veh KRTAP5-7 /// NADSYN1 (11734609_at) / RFU RASL12 (11751679_a_at) / Fold change /veh RASL12 (11751679_a_at) / RFU CDKN2B (11736163_a_at) / Fold change /veh CDKN2B (11736163_a_at) / RFU PRF1 (11729649_at) / Fold change /veh PRF1 (11729649_at) / RFU, ZNF638 /// ZNF638-IT1 / Fold change vs veh, ZNF638 /// ZNF638-IT1 / RFU, PANK3 / Fold change vs veh, PANK3 / RFU, SH3YL1 / Fold change vs veh, SH3YL1 / RFU, ZEB2 / Fold change vs veh, ZEB2 / RFU, NRIP1 / Fold change vs veh, NRIP1 / RFU, PTTG1IP / Fold change vs veh, PTTG1IP / RFU, CAPN2 / Fold change vs veh, CAPN2 / RFU, MED14 / Fold change vs veh, MED14 / RFU, SNORA58 / Fold change vs veh, SNORA58 / RFU, C1orf63 / Fold change vs veh, C1orf63 / RFU, LRRFIP1 / Fold change vs veh, LRRFIP1 / RFU, NDUFAF7 / Fold change vs veh, NDUFAF7 / RFU, SLC12A2 / Fold change vs veh, SLC12A2 / RFU, IBTK / Fold change vs veh, IBTK / RFU, ESF1 / Fold change vs veh, ESF1 / Fold change vs veh, TMEM50B / RFU, TAOK1 / Fold change vs veh, TAOK1 / RFU, ACBD3 / Fold change vs veh, ACBD3 / RFU, TMA16 / Fold change vs veh, TMA16 / RFU, RWDD3 / Fold change vs veh, RWDD3 / RFU, BCAT1 / Fold change vs veh, BCAT1 / RFU, EDEM3 / Fold change vs veh, EDEM3 / RFU, TMEM33 / Fold change vs veh, TMEM33 / RFU, WDR75 / Fold change vs veh, WDR75 / RFU, AHCTF1 / Fold change vs veh, AHCTF1 / RFU, TFRC / Fold change vs veh, TFRC / RFU, ZDHHC17 / Fold change vs veh, ZDHHC17 / RFU, NOM1 / Fold change vs veh, NOM1 / RFU, ARL8B / Fold change vs veh, ARL8B / RFU, ZBTB11 / Fold change vs veh, ZBTB11 / RFU, TAMM41 / Fold change vs veh, TAMM41 / RFU, KIAA1704 /// LOC100996395 / Fold change vs veh, KIAA1704 /// LOC100996395 / RFU, ING1 / Fold change vs veh, ING1 / RFU, TRMT61B / Fold change vs veh, TRMT61B / RFU, FUBP3 / Fold change vs veh, FUBP3 / RFU, TP53 / Fold change vs veh, TP53 / RFU, TNKS2 / Fold change vs veh, TNKS2 / RFU, ZFP14 / Fold change vs veh, ZFP14 / RFU, ACTR2 / Fold change vs veh, ACTR2 / RFU, PPP3R1 / Fold change vs veh, PPP3R1 / RFU, PIK3R1 / Fold change vs veh, PIK3R1 / RFU, HNRNPA1 / Fold change vs veh, HNRNPA1 / RFU, RNF170 / Fold change vs veh, RNF170 / RFU, ZNF28 / Fold change vs veh, ZNF28 / RFU, RNGTT / Fold change vs veh, RNGTT / RFU, OGT / Fold change vs veh, OGT / RFU, BRD1 / Fold change vs veh, BRD1 / RFU, MARS / Fold change vs veh, MARS / RFU, ZNF655 / Fold change vs veh, ZNF655 / RFU, FAHD1 / Fold change vs veh, FAHD1 / RFU, BDP1 / Fold change vs veh, BDP1 / RFU, LRRCC1 / Fold change vs veh, LRRCC1 / RFU, ARID1A / Fold change vs veh, ARID1A / RFU, ZNF146 / Fold change vs veh, ZNF146 / RFU, ZNF330 / Fold change vs veh, ZNF330 / RFU, GPN3 / Fold change vs veh, GPN3 / RFU, C9orf123 / Fold change vs veh, C9orf123 / RFU, N4BP2L2 / Fold change vs veh, N4BP2L2 / RFU, ARFIP1 / Fold change vs veh, ARFIP1 / RFU, FAM179B / Fold change vs veh, FAM179B / RFU, BCL10 / Fold change vs veh, BCL10 / RFU, UHRF1BP1L / Fold change vs veh, UHRF1BP1L / RFU, BET1 / Fold change vs veh, BET1 / RFU, CNOT2 / Fold change vs veh, CNOT2 / RFU, ZNF268 / Fold change vs veh, ZNF268 / Fold change vs veh, ZNF507 / RFU, DGCR2 / Fold change vs veh, DGCR2 / RFU, WDSUB1 / Fold change vs veh, WDSUB1 / Fold change vs veh, HSP90B1 /// MIR3652 / RFU, ADSS / Fold change vs veh, ADSS / RFU, GK / Fold change vs veh, GK / RFU, ZNF148 / Fold change vs veh, ZNF148 / RFU, TAF9 / Fold change vs veh, TAF9 / RFU, SLC1A5 / Fold change vs veh, SLC1A5 / RFU, SLMO2 / Fold change vs veh, SLMO2 / RFU, ABCC4 / Fold change vs veh, ABCC4 / RFU, LOC101060439 /// RAP1B / Fold change vs veh, LOC101060439 /// RAP1B / RFU, RFX7 / Fold change vs veh, RFX7 / RFU, GTPBP10 / Fold change vs veh, GTPBP10 / RFU, CNEP1R1 / Fold change vs veh, CNEP1R1 / RFU, BIVM-ERCC5 /// ERCC5 / Fold change vs veh, BIVM-ERCC5 /// ERCC5 / RFU, ILF3 / Fold change vs veh, ILF3 / RFU 11762660_at / Fold change /veh 11762660_at / RFU VCAN (11757783_s_at) / Fold change /veh VCAN (11757783_s_at) / RFU DDX43 (11728927_at) / Fold change /veh DDX43 (11728927_at) / RFU KRT8 (11758188_x_at) / Fold change /veh KRT8 (11758188_x_at) / RFU NKD1 (11759106_at) / Fold change /veh NKD1 (11759106_at) / RFU SRD5A1 (11742802_a_at) / Fold change /veh SRD5A1 (11742802_a_at) / RFU TPSAB1 /// TPSB2 (11721975_s_at) / Fold change /veh TPSAB1 /// TPSB2 (11721975_s_at) / RFU GSTM3 (11746129_a_at) / Fold change /veh GSTM3 (11746129_a_at) / RFU IL23R (11737362_x_at) / Fold change /veh IL23R (11737362_x_at) / RFU TMEM51 (11727254_a_at) / Fold change /veh TMEM51 (11727254_a_at) / RFU PIWIL2 (11732686_x_at) / Fold change /veh PIWIL2 (11732686_x_at) / RFU ORM1 (11744905_x_at) / Fold change /veh ORM1 (11744905_x_at) / RFU CCDC152 (11743942_at) / Fold change /veh CCDC152 (11743942_at) / RFU ECM1 (11717891_a_at) / Fold change /veh ECM1 (11717891_a_at) / RFU IL23R (11748794_a_at) / Fold change /veh IL23R (11748794_a_at) / RFU TNFAIP8L3 (11732012_x_at) / Fold change /veh TNFAIP8L3 (11732012_x_at) / RFU MBOAT4 (11741988_at) / Fold change /veh MBOAT4 (11741988_at) / RFU 11764193_at / Fold change /veh 11764193_at / RFU TMEM53 (11763286_at) / Fold change /veh TMEM53 (11763286_at) / RFU MAGEB2 (11727129_at) / Fold change /veh MAGEB2 (11727129_at) / RFU TMEM200A (11744735_a_at) / Fold change /veh TMEM200A (11744735_a_at) / RFU CCDC152 (11751479_a_at) / Fold change /veh CCDC152 (11751479_a_at) / RFU FAM211A (11726209_a_at) / Fold change /veh FAM211A (11726209_a_at) / RFU RGS16 (11746705_a_at) / Fold change /veh RGS16 (11746705_a_at) / RFU VCAN (11755009_s_at) / Fold change /veh VCAN (11755009_s_at) / RFU RHOB (11743442_s_at) / Fold change /veh RHOB (11743442_s_at) / RFU RGS16 (11720943_a_at) / Fold change /veh RGS16 (11720943_a_at) / RFU RGS16 (11720944_at) / Fold change /veh RGS16 (11720944_at) / RFU, VPS4B / Fold change vs veh, VPS4B / RFU, CREB1 / Fold change vs veh, CREB1 / RFU, DNAJC13 / Fold change vs veh, DNAJC13 / RFU, GNAQ / Fold change vs veh, GNAQ / RFU, CDK5R1 / Fold change vs veh, CDK5R1 / RFU, ZRANB3 / Fold change vs veh, ZRANB3 / RFU, CUL4A / Fold change vs veh, CUL4A / RFU, CCNY / Fold change vs veh, CCNY / RFU, UFL1 / Fold change vs veh, UFL1 / RFU, COG3 / Fold change vs veh, COG3 / RFU, DIAPH2 / Fold change vs veh, DIAPH2 / RFU, SKA2 / Fold change vs veh, SKA2 / RFU, AFF3 / Fold change vs veh, AFF3 / RFU, LMF1 / Fold change vs veh, LMF1 / RFU, IPO11 / Fold change vs veh, IPO11 / RFU, DFFB / Fold change vs veh, DFFB / RFU, FOXP1 / Fold change vs veh, FOXP1 / RFU, CARD8 / Fold change vs veh, CARD8 / RFU, STRN3 / Fold change vs veh, STRN3 / RFU, ADK / Fold change vs veh, ADK / RFU, RASSF2 / Fold change vs veh, RASSF2 / RFU, WIPF1 / Fold change vs veh, WIPF1 / RFU, LARP1B / Fold change vs veh, LARP1B / RFU, RASA1 / Fold change vs veh, RASA1 / RFU, RB1 / Fold change vs veh, RB1 / RFU, PPFIA1 / Fold change vs veh, PPFIA1 / RFU, MAT2A / Fold change vs veh, MAT2A / RFU, CCT5 / Fold change vs veh, CCT5 / RFU, WDR92 / Fold change vs veh, WDR92 / RFU, CUX1 / Fold change vs veh, CUX1 / RFU, TTC7A / Fold change vs veh, TTC7A / RFU, TMEM135 / Fold change vs veh, TMEM135 / RFU, DEPTOR / Fold change vs veh, DEPTOR / RFU, CPM / Fold change vs veh, CPM / RFU, DNAJB6 / Fold change vs veh, DNAJB6 / RFU, CACNA2D3 / Fold change vs veh, CACNA2D3 / RFU, DTX4 / Fold change vs veh, DTX4 / RFU, TFCP2 / Fold change vs veh, TFCP2 / RFU, GMCL1 /// GMCL1P1 / Fold change vs veh, GMCL1 /// GMCL1P1 / RFU, AEBP2 / Fold change vs veh, AEBP2 / RFU, SNHG1 /// SNORD22 /// SNORD25 /// SNORD26 /// SNORD27 /// SNORD28 /// SNORD29 /// SNORD31 / Fold change vs veh, SNHG1 /// SNORD22 /// SNORD25 /// SNORD26 /// SNORD27 /// SNORD28 /// SNORD29 /// SNORD31 / Fold change (Aza/veh), C12orf56 (ProbeSet 11735607_a_at) / Fold change (ACY-1035/veh), C12orf56 (ProbeSet 11735607_a_at) / Fold change (Aza/veh), FGFR1OP (ProbeSet 11751329_s_at) / Fold change (ACY-1035/veh), FGFR1OP (ProbeSet 11751329_s_at) / Fold change (Aza/veh), VPS36 (ProbeSet 11739960_a_at) / Fold change (ACY-1035/veh), VPS36 (ProbeSet 11739960_a_at) / RFU SYPL1 (11715823_x_at) / Fold change /veh SYPL1 (11715823_x_at) / RFU IGFBP7 (11715501_s_at) / Fold change /veh IGFBP7 (11715501_s_at) / RFU REEP3 (11722064_at) / Fold change /veh REEP3 (11722064_at) / RFU IGLL1 (11728026_x_at) / Fold change /veh IGLL1 (11728026_x_at): dose or concentration left out as unconfirmed
# Details: MV-4-11 cells, 48 hours
compound,measurement,value
Nc1ccc(-c2cccs2)cc1NC(=O)c1ccc2c(c1)cc(C1CC1)n2CCN1CCOCC1 [ACY-1035],RFU LOC100653217 /// NTM (11731650_a_at),9.86 RFU
